Assay results reported in patent US4892740A, “Orally administrable pharmaceutical preparation of improved flavoring characteristics” (Taisho Pharmaceutical Co., Ltd., priority 1987, dated 1990).

Assay: Blood concentration of TE-031 after oral administration to Beagle dogs (bioassay method)
Format: in vivo
Details: dog, male Beagle dogs
Protocol: Test Animals Five male Beagle dogs weighing 10 kg were used as experimental animals. Sample The pharmaceutical preparation obtained in Example 1 (coated particles containing 39% of TE-031 prepared by using AEA powder having an average particle diameter of 16 microns as the powder bed) was used in an amount of 100 mg as TE-031. Testing procedure The sample was orally administered together with water to the experimental animals, and the concentration of TE-031 in the blood was measured by the bioassay method. Then after a period of 10 days during which the sample was not administered, a capsule containing 100 mg of the bulk of TE-031 was orally administered as a control together with water. The concentration of TE-031 in the blood was likewise measured by bioassay.

AUC (100 mg as TE-031, read-out: area below the blood level curve): 42400 ng·h/mL | Cmax (100 mg as TE-031, read-out: maximum blood level): 3060 ng/mL | Tmax (100 mg as TE-031, read-out: time of highest blood level): 2 h
Compound: CC[C@H]1OC(=O)[C@H](C)[C@@H](O[C@H]2C[C@@](C)(OC)[C@@H](O)[C@H](C)O2)[C@H](C)[C@@H](O[C@@H]2O[C@H](C)C[C@H](N(C)C)[C@H]2O)[C@](C)(OC)C[C@@H](C)C(=O)[C@H](C)[C@@H](O)[C@]1(C)O [bulk, 6-O-methylerythromycin A]
